Source: ChEMBL document CHEMBL4831554, “Diverse, Potent, and Efficacious Inhibitors That Target the EED Subunit of the Polycomb Repressive Complex 2 Methyltransferase” (J Med Chem, 2021)

Experiments:
[1] = Lipophilicity, logD of the compound in Octanol/phosphate buffer at pH 7.4 after 30 mins by shake-flask method; type: physicochemical
[2] = Intrinsic clearance in human liver microsomes at 1 uM preincubated with NADPH for 5 mins followed by compound addition and measured upto 30 mins by LC-MS/MS analysis; type: ADME, Microsome; conditions: read-out: CLH
[3] = Clearance in rat at 1 mg/kg, po or 0.5 mg/kg, iv; type: ADME, organism-based; conditions: in vivo
[4] = Volume of distribution at steady state in rat at 1 mg/kg, po or 0.5 mg/kg, iv; type: ADME, organism-based; conditions: in vivo, read-out: Vdss
[5] = Bioavailability in rat at 1 mg/kg, po or 0.5 mg/kg, iv; type: ADME, organism-based; conditions: in vivo
[6] = Intrinsic clearance in human hepatocytes assessed per million cells at 1 uM measured upto 30 mins by HPLC analysis; type: ADME, cell-based, Hepatocyte; conditions: read-out: CLH
[7] = Apparent permeability of compound in human Caco-2 cells; type: ADME, cell-based

| logD at 0.5 h [1] | microsomal CLint at 1 µM [2] [µL/min/mg] | Compound | further results |
| --- | --- | --- | --- |
| 2.5 | 15 | Cc1ncccc1-c1cnc(NCc2c(F)ccc3c2CCO3)n2cnnc12 | clearance [3]: 19 mL/min/kg; Vd [4]: 3.7 L/kg; bioavailability [5]: 74%; hepatocyte CLint at 1 µM [6]: 2.6 µL/min/1e6 cells; Papp [7]: 38.7 10^-6 cm/s |
| 2.2 | 151 | Cc1ncccc1-c1cnc(NCc2c(F)ccc3c2CCO3)c2nn(CC#N)c(=O)n12 |  |
| 2.7 | 16 | O=C1Cc2ccccc2CN1c1cnc(NCc2c(F)ccc3c2CCO3)n2cnnc12 |  |
| 2.7 | 24 | O=C1Oc2ccccc2CN1c1cnc(NCc2c(F)ccc3c2CCO3)n2cnnc12 |  |
| 2.7 | 13 | O=C1c2ccccc2CN1c1cnc(NCc2c(F)ccc3c2CCO3)n2cnnc12 | hepatocyte CLint at 1 µM [6]: 2.7 µL/min/1e6 cells |
| 1.6 | 5.7 | CN(c1cn(C)cn1)c1cnc(NCc2c(F)ccc3c2CCO3)n2cnnc12 |  |
| 2.9 | 23 | CNC(=O)c1ccc(-c2cnc(NCc3c(F)ccc4c3CCO4)c3cn[nH]c(=O)c23)c(C)n1 | clearance [3]: 24 mL/min/kg; Vd [4]: 2.7 L/kg; bioavailability [5]: 53%; hepatocyte CLint at 1 µM [6]: 3 µL/min/1e6 cells; Papp ([7]; read-out: Papp): 54.1 ×10⁻⁶ cm/s |
| 1.8 | 13 | CN(C)Cc1ccc(C(=O)Nc2cnc(NCc3c(F)ccc4c3CCO4)n3cnnc23)cc1 |  |
| 2.1 | 8 | Cc1nccn1-c1cnc(NCc2c(F)ccc3c2CCO3)c2cn[nH]c(=O)c12 |  |
| 2.1 | 19 | Cc1nc(C(=O)N(C)C)ccc1-c1cnc(NCc2c(F)ccc3c2CCO3)c2cn[nH]c(=O)c12 | clearance [3]: 54 mL/min/kg; Vd [4]: 1.9 L/kg; bioavailability [5]: 22%; hepatocyte CLint at 1 µM [6]: < 1.3 µL/min/1e6 cells; Papp ([7]; read-out: Papp): 1.7 ×10⁻⁶ cm/s |
| 2.5 | 24 | CNC(=O)c1ncc(-c2cnc(NCc3c(F)ccc4c3CCO4)c3cn[nH]c(=O)c23)n1C |  |
| 1.8 | 23 | O=C1CCCN1c1cnc(NCc2c(F)ccc3c2CCO3)c2cn[nH]c(=O)c12 |  |
| 1.3 | < 3 | O=C1CCCN1c1cnc(NCc2c(F)ccc3c2CCO3)n2cnnc12 |  |
| 2.1 | 21 | CN(C)C(=O)c1cc(-c2cnc(NCc3c(F)ccc4c3CCO4)c3cn[nH]c(=O)c23)n(C)n1 |  |
| 1.4 | 5.2 | CN(c1ccncc1)c1cnc(NCc2c(F)ccc3c2CCO3)n2cnnc12 |  |
| 2.2 | 8.9 | CN(c1cnn(C)c1)c1cnc(NCc2c(F)ccc3c2CCO3)n2cnnc12 |  |
| 1.9 | 10 | Cc1ncc(-c2cnc(NCc3c(F)ccc4c3CCO4)c3cn[nH]c(=O)c23)n1C |  |
| 2.6 | 14 | Cn1nccc1-c1cnc(NCc2c(F)ccc3c2CCO3)c2cn[nH]c(=O)c12 |  |
| 3.1 | 20 | COc1ccccc1C(=O)Nc1cnc(NCc2c(F)ccc3c2CCO3)n2cnnc12 |  |
| 3.6 | 55 | CN(c1ccccc1)c1cnc(NCc2c(F)ccc3c2CCO3)n2cnnc12 |  |
| 3 | 10 | O=C(Nc1cnc(NCc2c(F)ccc3c2CCO3)n2cnnc12)c1ccccc1 |  |
| 1.9 | < 3 | O=C1CC2(CC2)CN1c1cnc(NCc2c(F)ccc3c2CCO3)n2cnnc12 | clearance [3]: 23 mL/min/kg; Vd [4]: 1.4 L/kg; bioavailability [5]: 68%; hepatocyte CLint at 1 µM [6]: 3.5 µL/min/1e6 cells |
| 2.2 | 32 | CN(C)Cc1ccc2c(c1)CN(c1cnc(NCc3c(F)ccc4c3CCO4)c3cn[nH]c(=O)c13)C2=O |  |
| 3.3 | 20 | Fc1ccc2c(c1CNc1ncc(Nc3ccccc3)c3nncn13)CCO2 |  |
| 3 | 24 | Cc1cc(-c2cnc(NCc3c(F)ccc4c3CCO4)c3cn[nH]c(=O)c23)n(C)n1 |  |

| logD at 0.5 h [1] | microsomal CLint at 1 µM [2] [µL/min/mg] | Compound | further results |
| --- | --- | --- | --- |
| 3.5 | 18 | Fc1ccc2c(c1CNc1ncc(Oc3ccccc3)c3nncn13)CCO2 |  |
| 1.8 | 11 | CN(c1ccn(C)n1)c1cnc(NCc2c(F)ccc3c2CCO3)n2cnnc12 | clearance [3]: 29 mL/min/kg; Vd [4]: 3 L/kg; bioavailability [5]: 67%; hepatocyte CLint at 1 µM [6]: < 1 µL/min/1e6 cells |
| 1.8 | < 3 | C[C@H]1CC(=O)N(c2cnc(NCc3c(F)ccc4c3CCO4)n3cnnc23)C1 |  |
| 2.1 | 11 | CN(c1ncco1)c1cnc(NCc2c(F)ccc3c2CCO3)n2cnnc12 | clearance [3]: 29 mL/min/kg; Vd [4]: 3.1 L/kg; bioavailability [5]: 61%; hepatocyte CLint at 1 µM [6]: 1.4 µL/min/1e6 cells |
| 3 | 41 | Cc1ncccc1-c1cnc(NCc2c(F)ccc3c2CCO3)c2cn[nH]c(=O)c12 | hepatocyte CLint at 1 µM [6]: 4.6 µL/min/1e6 cells |
| 2.7 | 21 | Cn1cc(-c2cnc(NCc3c(F)ccc4c3CCO4)c3cn[nH]c(=O)c23)cn1 |  |
| 2 | 13 | Cc1nc(CN(C)C)ccc1-c1cnc(NCc2c(F)ccc3c2CCO3)c2cn[nH]c(=O)c12 | Papp ([7]; read-out: Papp): < 0.6 ×10⁻⁶ cm/s |
| 2.5 | 8 | Cc1ncccc1-c1cnc(NCc2c(F)ccc3c2CCO3)c2n[nH]c(=O)n12 |  |
| 2.6 | 80 | CN(c1cccnc1)c1cnc(NCc2c(F)ccc3c2CCO3)n2cnnc12 |  |
| 2.1 | < 3 | CNC(=O)c1cc(-c2cnc(NCc3c(F)ccc4c3CCO4)c3cn[nH]c(=O)c23)n(C)n1 |  |
| 1.6 | 5 | O=C1c2cnccc2CN1c1cnc(NCc2c(F)ccc3c2CCO3)n2cnnc12 |  |
| 1.6 | 19 | CN(C)Cc1ccc2c(c1)CN(c1cnc(NCc3c(F)ccc4c3CCO4)n3cnnc13)C2=O |  |
| 4.1 | 14 | O=C(Nc1ccccc1)c1cnc(NCc2c(F)ccc3c2CCO3)n2cnnc12 |  |
| 2.8 | 27 | Cc1nn(C)cc1-c1cnc(NCc2c(F)ccc3c2CCO3)c2cn[nH]c(=O)c12 |  |
| 3 | 36 | Cc1ncccc1-c1cnc(NCc2c(F)ccc3c2CCO3)n2c(=O)[nH]nc12 |  |
| 2.4 | 11 | Cc1nc(CO)ccc1-c1cnc(NCc2c(F)ccc3c2CCO3)c2cn[nH]c(=O)c12 |  |
| 1.6 | 18 | O=C1c2ccc(OCCN3CCCC3)cc2CN1c1cnc(NCc2c(F)ccc3c2CCO3)n2cnnc12 | clearance [3]: 35 mL/min/kg; Vd [4]: 6.5 L/kg; Papp ([7]; read-out: Papp): < 0.6 ×10⁻⁶ cm/s |
| 2.4 | 62 | CN(c1ccn(C)n1)c1cnc(NCc2c(F)ccc3c2CCO3)c2cn[nH]c(=O)c12 |  |
| 2.9 | 207 | CC(=O)N1CCC(c2cnc(NCc3c(F)ccc4c3CCO4)c3cn[nH]c(=O)c23)CC1 |  |
| 1.8 | < 3 | C[C@@H]1CC(=O)N(c2cnc(NCc3c(F)ccc4c3CCO4)n3cnnc23)C1 |  |
| 2 | 16 | CC1(C)CC(=O)N(c2cnc(NCc3c(F)ccc4c3CCO4)n3cnnc23)C1 |  |
| 2 | < 3 | O=C(Nc1cnc(NCc2c(F)ccc3c2CCO3)n2cnnc12)c1cccnc1 |  |
| 2.8 | 21 | Cc1ncccc1-c1cnc(NCc2c(F)ccc3c2CCO3)c2ncc(=O)[nH]c12 |  |
| 1.4 | < 3 | COCCC(=O)Nc1cnc(NCc2c(F)ccc3c2CCO3)n2cnnc12 |  |
| 2.4 | > 300 | CN(C(=O)c1ccccc1)c1cnc(NCc2c(F)ccc3c2CCO3)n2cnnc12 |  |
